Laboratory results taken from patent publication US5389687A, “Ring-substituted 2-amino-1,2,3,4-tetra-hydronaphthalenes” (Eli Lilly and Company, priority 1991, dated 1995).
Several values for one entry are separate records, joined by “and”; a condition that tells them apart may be missing. Equal values may be shown once. Read-outs that look alike come from different tables or passages of the source.

Legend:
[1] = biological target: T1, 5HT1a receptors (Rattus norvegicus, UniProt P19327); assay: Binding at 5HT1a receptors in vitro (inhibition of 3H-8-OH-DPAT binding to synaptosomal membranes from cerebral cortex); set-up: species or system Male Sprague-Dawley rats; conditions: 0.4 nM 3H-8-OH-DPAT, 37° C., 10 min, pH 7.4, several values in a cell are separate determinations
T1 construct: synaptosomal membranes isolated from cerebral cortex; from tissue; host or cells: rat cerebral cortex, crude synaptosomal membranes (Male Sprague-Dawley rats from Harlan Industries)
T1 sequence (P19327 1-422): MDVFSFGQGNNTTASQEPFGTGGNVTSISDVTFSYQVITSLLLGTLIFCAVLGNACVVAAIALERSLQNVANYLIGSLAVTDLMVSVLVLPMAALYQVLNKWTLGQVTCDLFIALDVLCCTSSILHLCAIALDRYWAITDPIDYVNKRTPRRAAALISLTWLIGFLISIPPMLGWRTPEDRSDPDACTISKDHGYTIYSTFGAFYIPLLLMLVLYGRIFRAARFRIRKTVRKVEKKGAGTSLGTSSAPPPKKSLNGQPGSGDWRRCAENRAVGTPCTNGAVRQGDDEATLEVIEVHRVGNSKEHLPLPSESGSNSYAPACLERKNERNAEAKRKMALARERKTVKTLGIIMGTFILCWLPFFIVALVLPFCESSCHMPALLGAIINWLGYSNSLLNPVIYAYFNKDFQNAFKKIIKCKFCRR
Experimental: This general procedure is set forth in Wong et al., J. Neural Transm. 71:207-218 (1988).
Male Sprague-Dawley rats (110-150 g) from Harlan Industries (Cumberland, Ind.) were fed a Purina Chow ad libitum for at least 3 days before being used in the studies. Rats were killed by decapitation. The brains were rapidly removed, and the cerebral cortices were dissected out at 4° C.
Brain tissues were homogenized in 0.32 M sucrose. After centrifugation at 1000×g for 10 min and then at 17000×g for 20 min, a crude synaptosomal fraction was sedimented. The pellet was suspended in 100 vol of 50 mM Tris-HCl, pH 7.4, incubated at 37° C. for 10 min, and centrifuged at 50000×g for 10 min. The process was repeated and the final pellet was suspended in ice-chilled 50 mM Tris-HCl, pH 7.4. By the radio-ligand binding method, sites specifically labeled by tritiated 8-hydroxy-2-dipropylamino-1,2,3,4-tetrahydronaphthalene ([…]) have been identified as 5HT-1a receptors.
Binding of (^3 H-8-OH-DPAT) was performed according to the previously described method [Wong et al., J. Neural Transm. 64:251-269 (1985)]. Briefly, synaptosomal membranes isolated from cerebral cortex were incubated at 37° C. for 10 min. in 2 ml of 50 mM Tris-HCl, pH 7.4; 10 μM pargyline; 0.6 mM ascorbic acid; and 0.4 nM […]. Binding was terminated by filtering samples under reduced pressure through glass fiber (GFB) filters. The filters were washed twice with 5 ml of ice cold buffer and placed in scintillation vials with 10 ml of PCS (Amersham/Searle) scintillation fluid. Radioactivity was measured with a liquid scintillation spectrometer. Unlabeled 8-OH-DPAT at 10 μM was also included in separate samples to establish non-specific binding. Specific binding of ^3 H-8-OH-DPAT is defined as the difference of radioactivity bound in the absence and in the presence of 10 μM unlabeled 8-OH-DPAT.

[2] = test system: conscious spontaneous hypertensive rats (SHR); assay: Effect on heart rate after i.v. administration to conscious SHR; type: in vivo; conditions: for ED15: Rattus norvegicus, iv, read-out: Heart Rate ED15
Experimental: (§1) The compounds of this invention are also effective in reducing blood pressure. The blood pressure lowering effect of the compounds of this invention was determined in conscious spontaneous hypertensive rats (SHR; 325-425 g). The rats were anesthetized with halothane (2% in nitrous oxide and oxygen) and were implanted with femoral arterial and venous catheters. The tips of arterial and venous catheters-were positioned in the abdominal aorta below the renal arteries and lower abdominal vena cava, respectively. The catheters were routed subcutaneously to an exit point at the base of the skull and then through a small leather harness fastened around the forequarters of each animal. The animals were allowed a 3- to 4-day recovery period after surgery. On the day before an experiment, each rat was conditioned to the experimental surroundings for 6 hours. On the day of the experiment, the harness on the back of each animal was connected to a spring tether through which arterial and venous extension tubing was routed. The other end of the tubing was connected to a water tight swivel. This system permitted direct recording of blood pressure in conscious free moving animals. Mean arterial blood pressure was measured via a Statham strain gauge transducer (P23DB, Statham Instruments, Oxnard, Calif.) and recorded on a multichannel oscillograph (Beckman Model R611, Beckman Instruments, Palo Alto, Calif.). A minimum 30-minute equilibration period was observed prior to the experimental protocol during which time the animals preened and blood pressure was quite labile. Afterward, the animals appeared to sleep and pressure was stable. Following a control blood pressure measurement, rats were dosed with the compound or vehicle i.v., and pressure was monitored at various time intervals thereafter.
(§2) ^1 Standard protocol recorded the blood pressure and heart rate
(§3) responses after 0.3, 1.0 and 3.0 mg/kg i.v. Dose response curves were
(§4) plotted using the % change in pressure from pretreatment control values a
(§5) 15 and 30 minutes after treatment.
(§6) Corr = correlation coefficient for the linear relationship between the lo
(§7) dose(s) and % change (y) in pressure. Values of 1.0 = perfect correlation
(§8) Pos = Positive slope of dose response
HR Index = ED15 for Heart Rate divided by ED25 for Blood

[3] = test system: conscious spontaneous hypertensive rats (SHR); assay: Effect on blood pressure after i.v. administration to conscious SHR; type: in vivo; conditions: for ED25: Rattus norvegicus, iv, read-out: Blood Pressure ED25 (i.v. dose required to decrease pressure 25%)
Experimental: as §1, §2, §3, §4, §5, §6, §7, §8
ED25 = i.v. dose required to decrease pressure 25%

[4] = 15 min. after treatment, i.v., conscious SHR
[5] = 30 min. after treatment, i.v., conscious SHR
[6] = 0.25 h, 15 min. after treatment, i.v., conscious SHR
[7] = 0.5 h, 30 min. after treatment, i.v., conscious SHR

## CCCN(CCC)C1CCc2cccc(C#N)c2C1 (stereo not shown) [Example 8, 2-Di-n-propylamino-8-cyano-1,2,3,4-tetrahydronaphthalene]
[1]; IC50 5HT1a
  IC50: 55 nM
[2]; [4]
  HR Index (ED15 for Heart Rate divided by ED25 for Blood Pressure): 0.71
[2]; [5]
  HR Index (ED15 for Heart Rate divided by ED25 for Blood Pressure): 0.68
[2]; [6]
  ED15: 3.6 mg/kg
[2]; [7]
  ED15: 2.8 mg/kg
[3]; [6]
  ED25: 5.1 mg/kg
[3]; [7]
  ED25: 4.1 mg/kg

## CCCN(CCC)C1CCc2cccc(F)c2C1 (stereo not shown) [Example 6, 2-Di-n-propylamino-8-fluoro-1,2,3,4-tetrahydronaphthalene]
[1]; read-out: IC50 5HT1a
  IC50: 280 nM
[2]; [4]
  Heart Rate ED15: Pos
[2]; [7]
  ED15: 8 mg/kg
[3]; [6]
  ED25: 4.5 mg/kg

## CCCN(CCC)C1CCc2cccc(Br)c2C1 (stereo not shown) [Example 5, 2-Di-n-propylamino-8-bromo-1,2,3,4-tetrahydronaphthalene]
[1]; IC50 5HT1a
  IC50: 23 nM and 15.1 nM
[2]; [4]
  HR Index (ED15 for Heart Rate divided by ED25 for Blood Pressure): 0.06
[2]; [5]
  HR Index (ED15 for Heart Rate divided by ED25 for Blood Pressure): 0.27
[2]; [6]
  ED15: 1.6 mg/kg
[2]; [7]
  ED15: 1.6 mg/kg
[3]; [6]
  ED25: 6.1 mg/kg
[3]; [7]
  ED25: 5.9 mg/kg

## CCN(C)C1CCc2cccc(Cl)c2C1 (stereo not shown) [Example 13, 2-Methylethylamino-8-chloro-1,2,3,4-tetrahydronaphthalene]
[1]; read-out: IC50 5HT1a
  IC50: 120 nM
[2]; [4]
  HR Index (ED15 for Heart Rate divided by ED25 for Blood Pressure): 0.69
[2]; [5]
  HR Index (ED15 for Heart Rate divided by ED25 for Blood Pressure): 0.70
[2]; [6]
  ED15: 0.48 mg/kg
[2]; [7]
  ED15: 0.63 mg/kg
[3]; [6]
  ED25: 0.7 mg/kg
[3]; [7]
  ED25: 0.9 mg/kg

## CCCN(CCC)C1CCc2cccc(C(N)=O)c2C1 (stereo not shown) [Example 16, 2-Di-n-propylamino-8-carboxamido-1,2,3,4-tetrahydronaphthalene]
[1]; IC50 5HT1a
  IC50: 7.1 nM and 9 nM and 6.1 nM and 5.8 nM
[2]; [4]
  HR Index (ED15 for Heart Rate divided by ED25 for Blood Pressure): 0.35
[2]; [5]
  HR Index (ED15 for Heart Rate divided by ED25 for Blood Pressure): 0.51
[2]; [6]
  ED15: 1.5 mg/kg
[2]; [7]
  ED15: 2.9 mg/kg
[3]; [6]
  ED25: 4.2 mg/kg
[3]; [7]
  ED25: 5.7 mg/kg

## CCCN(CCC)C1CCc2cccc(C=O)c2C1 (stereo not shown) [Example 17, 2-Di-n-propylamino-8-formyl-1,2,3,4-tetrahydronaphthalene]
[1]; IC50 5HT1a
  IC50: 17.2 nM

## CCN(C)C1CCc2cccc(C(N)=O)c2C1 (stereo not shown) [Example 20, 2-Methylethylamino-8-carboxamido-1,2,3,4-tetrahydronaphthalene]
[1]; read-out: IC50 5HT1a
  IC50: 400 nM

## CNC1CCc2cccc(Cl)c2C1 (stereo not shown) [Example 12, 2-Methylamino-8-chloro-1,2,3,4-tetrahydronaphthalene]
[2]; [5]
  HR Index (ED15 for Heart Rate divided by ED25 for Blood Pressure): 0.83
[2]; [7]
  ED15: 1.5 mg/kg
[3]; [6]
  ED25: 1.4 mg/kg
[3]; [7]
  ED25: 1.8 mg/kg

## CCCNC1CCc2cccc(NC(C)=O)c2C1 (stereo not shown) [Example 18, 2-Propylamino-8-acetamido-1,2,3,4-tetrahydronaphthalene]
[2]; [6]
  ED15: 3.8 mg/kg
[2]; [7]
  ED15: 1.2 mg/kg

## CN(C)C1CCc2cccc(C(N)=O)c2C1 (stereo not shown) [Example 19, 2-Dimethylamino-8-carboxamido-1,2,3,4-tetrahydronaphthalene]
[2]; [4]
  Heart Rate ED15: Pos
[2]; [5]
  Heart Rate ED15: Pos
[3]; [6]
  ED25: 10.9 mg/kg
[3]; [7]
  ED25: 1030 mg/kg

## CCCN(CCC)C1CCc2cccc(C(=O)OC)c2C1 (stereo not shown) [Example 7, 2-Di-n-propylamino-8-methoxycarbonyl-1,2,3,4-tetrahydronaphthalene]
[1]; IC50 5HT1a
  IC50: 1.4 nM and 1.8 nM and 2.4 nM
[2]; [5]
  HR Index (ED15 for Heart Rate divided by ED25 for Blood Pressure): 0.21
[2]; [6]
  ED15: 1.4 mg/kg
[2]; [7]
  ED15: 1.1 mg/kg
[3]; [7]
  ED25: 5.3 mg/kg

## C=CCN(CC=C)C1CCc2cccc(Cl)c2C1 (stereo not shown) [Example 3, 2-Diallylamino-8-chloro-1,2,3,4-tetrahydronaphthalene]
[1]; IC50 5HT1a
  IC50: 45.2 nM

## CCCN(CCC)C1CCc2cccc(CO)c2C1 (stereo not shown) [Example 21, 2-Di-n-propylamino-8-hydroxymethyl-1,2,3,4-tetrahydronaphthalene]
[1]; IC50 5HT1a
  IC50: 55.5 nM
[3]; 3.0 mg/kg i.v., conscious SHR
  convulsion: caused convulsion
[3]; [6]
  ED25: 4.2 mg/kg

## CCCCN(CCCC)C1CCc2cccc(Cl)c2C1 (stereo not shown) [Example 4, 2-Di-n-butylamino-8-chloro-1,2,3,4-tetrahydronaphthalene]
[1]; read-out: IC50 5HT1a
  IC50: 780 nM and 318 nM

## CCCN(CCC)C1CCc2cccc(Cl)c2C1 (stereo not shown) [Example 1, 2-Di-n-propylamino-8-chloro-1,2,3,4-tetrahydronaphthalene]
[1]; IC50 5HT1a
  IC50: 18 nM
[2]; [4]
  HR Index (ED15 for Heart Rate divided by ED25 for Blood Pressure): 8.96
[2]; [5]
  HR Index (ED15 for Heart Rate divided by ED25 for Blood Pressure): 0.22
[2]; [6]
  ED15: 27.8 mg/kg
[2]; [7]
  ED15: 2.8 mg/kg
[3]; [6]
  ED25: 3.1 mg/kg
[3]; [7]
  ED25: 13 mg/kg

## CN(C)C1CCc2cccc(Cl)c2C1 (stereo not shown) [Example 11, 2-Dimethylamino-8-chloro-1,2,3,4-tetrahydronaphthalene]
[1]; read-out: IC50 5HT1a
  IC50: 580 nM and 272 nM
[2]; [4]
  HR Index (ED15 for Heart Rate divided by ED25 for Blood Pressure): 1.0
[2]; [5]
  HR Index (ED15 for Heart Rate divided by ED25 for Blood Pressure): 3.00
[2]; [6]
  ED15: 1.1 mg/kg
[2]; [7]
  ED15: 5.4 mg/kg
[3]; [6]
  ED25: 1.1 mg/kg
[3]; [7]
  ED25: 1.8 mg/kg

## CCCNC1CCc2cccc(Cl)c2C1 (stereo not shown) [Example 10, 2-n-Propylamino-8-chloro-1,2,3,4-tetrahydronaphthalene]
[1]; read-out: IC50 5HT1a
  IC50: 200 nM
[2]; [4]
  HR Index (ED15 for Heart Rate divided by ED25 for Blood Pressure): 0.48
[2]; [5]
  HR Index (ED15 for Heart Rate divided by ED25 for Blood Pressure): 0.47
[2]; [6]
  ED15: 1.2 mg/kg
[2]; [7]
  ED15: 2.1 mg/kg
[3]; [6]
  ED25: 2.5 mg/kg
[3]; [7]
  ED25: 4.5 mg/kg

## CCCN(C)C1CCc2cccc(Cl)c2C1 (stereo not shown) [Example 15, 2-Methylpropylamino-8-chloro-1,2,3,4-tetrahydronaphthalene]
[1]; read-out: IC50 5HT1a
  IC50: 500 nM
[3]; [6]
  ED25: 1.6 mg/kg
[3]; [7]
  ED25: 3.8 mg/kg

## CCN(CC)C1CCc2cccc(Cl)c2C1 (stereo not shown) [Example 2, 2-Diethylamino-8-chloro-1,2,3,4-tetrahydronaphthalene]
[1]; IC50 5HT1a
  IC50: 48 nM and 38.2 nM
[2]; [5]
  HR Index (ED15 for Heart Rate divided by ED25 for Blood Pressure): 1.00
[2]; 0.5 h
  ED15: 1.5 mg/kg
[3]; 0.5 h
  ED25: 1.5 mg/kg

## CC(C)N(C)C1CCc2cccc(Cl)c2C1 (stereo not shown) [Example 14, 2-Methylisopropylamino-8-chloro-1,2,3,4-tetrahydronaphthalene]
[2]; [4]
  HR Index (ED15 for Heart Rate divided by ED25 for Blood Pressure): 1.31
[2]; [6]
  ED15: 3.8 mg/kg
[3]; [6]
  ED25: 2.9 mg/kg
